Results published in patent US9307761B2, “Microbial composition” (Rohm and Haas Company, priority 2011, dated 2016).

What was measured:
Type in all cases: cell-based
[1] = tested on: Staphylococcus aureus (10788 strain); test: Antimicrobial efficacy of actives against S. aureus in water, 15 seconds contact; conditions: for MBC (minimum biocidal concentration): against S. Aureus, in water; for NMBS: S. aureus
[2] = tested on: Escherichia coli (E. coli—ATCC #10536); test: Automated assessment of efficacy in model surfactant medium (2.85% sodium cocoyl glycinate and 1.85% sodium lauroamphoacetate), 15 seconds exposure, delta OD450/OD590; conditions: for No. of replicates showing growth (out of 4) / Δ OD 450 nm = OD450 (time = 16 hours) − OD450 (time zero), Mean / Δ OD 590 nm OD590 (time = 16 hours) − OD590 (time zero), Mean: 15 s exposure
Procedure: Micobiocidal Activity of Actives as Per the Invention in a Model Surfactant Medium Test Methodology for Automated Assessment of Efficacy in Surfactant Base
Solutions were prepared such that the concentrations of the surfactant components and test actives were 1.1×the final desired concentration in order to allow for dilution with the bacterial inoculum in the test. The solutions were manually adjusted to […] by dropwise addition of sodium hydroxide solution, as measured with a pH meter at ambient temperature.
Tests were conducted using standard microtiter plate assays using an automated liquid handling system, 270 μl of the surfactant test solution was pipetted into each well of the microtitre plate and 30 μl of the bacterial suspension was then added. After exactly 15 seconds of bacterial exposure, a 30 μl volume of bacterial cells was withdrawn and transferred to 270 μl of D/E quench solution. After 5 minutes in the D/E quench, the optical density (OD) was measured for each plate in turn at two specific wavelengths (450 nm and 590 nm). These provide a dual check of antimicrobial activity, as the OD450 reading is specific for the yellow colour of D/E quench when bacterial growth is observed, whereas OD590 is specific for the initial purple colour of the D/E quench which is retained if no bacterial growth is observed. After the time zero OD measurements, plates were then incubated at 37° C. overnight (16 hours) before repeating the OD measurements. Delta OD values were calculated by subtracting […]. Bacterial growth is observed as art increase in OD450 and a decrease in ΔOD590. To identify antibacterially efficacious systems (those preventing appreciable bacterial growth after incubation), the following threshold changes in OD readings have been adopted: if (1). OD450 increases by less than 0.2 absorbance unit on incubation and (2). OD590 decreases by less than 0.35 unit on incubation. Conversely, where OD450 increases by more than 0.2 AU and OD590 decreases by more than 0.35 unit after incubation, corresponding to a colour shift from purple to yellow, the test system allows bacterial growth and is not deemed efficacious, four replicate measurements in the same plate have been made for each test system. The number of replicate wells showing either bacterial growth or no growth is also readily assessed by eye by following the colour change.
Dose responses for individual components and binary mixtures of actives at a fixed concentration ratio were generated by sequential dilution of liquors with further surfactant solution to obtain a series of endpoints.
In some selected cases, the combinations were also tested at the weight ratio 1:1.

[3] = tested on: Escherichia coli (10536 strain); test: 15 seconds contact kill assay of actives in water, mean bacterial survival NMBS; conditions: E. coli; for NMBS: alone, 15 seconds contact
S. aureus = test: Synergy of terpinyl alcohols with phenolic compounds in water against S. aureus, log reduction after 15 seconds contact
Procedure: The procedure used was as follows:
Liquid actives were used directly. Solid actives were dissolved in alcohol and a 50% stock was made.
Preparation of Test Cultures:
The culture was grown overnight in Tryptone soya agar.
To 9 ml water the actives were added to give the desired concentration. 1 ml of the culture was added and mixed. After 15 seconds contact 1 ml aliquot was removed and added to a neutraliser and kept for 5 minutes. A control of untreated cells was similarly processed. It was then diluted and plated. The plates were incubated at 37° C. for 24 hours. The colonies on the plates were counted. The counts were converted to log10. The log no. of survivors was determined and log reduction calculated.

[4] = tested on: Escherichia coli (E. coli—ATCC #10536); test: Synergy tests: high resolution MBC microtiter plate assay, 15 seconds contact, phosphate buffer containing […] dipropylene glycol; conditions: E. coli 10536; at Qa and Qb; <1 synergy, 1 additivity, >1 antagonism
Text: The concentrations and ratios may also vary under different test conditions or with different test methods.
One measure of synergy is the industrially accepted method described by Kull, F. C.; Eisman, P. C.; Sylwestrowicz, H. D. and Mayer, R. L., in Applied Microbiology 9:538-541 (1961), using the ratio determined by the formula: Qa/QA+Qb/QB=Synergy Index (“SI”) wherein: • QA=concentration of compound A (first component) in percent, acting alone, which produced an end point (MBC of Compound A). • Qa=concentration of compound A in percent, in the mixture, which produced an end point. • QB=concentration of compound B (second component) in percent, acting alone, which produced an end point (MBC of Compound B). • Qb=concentration of compound B in percent, in the mixture, which produced an end point.
When the sum of Qa/QA and Qb/QB is greater than one, antagonism is indicated. […] The lower the SI, the greater is the synergy shown by that particular mixture. The minimum biocidal concentration (MBC) of a microbicide is the lowest concentration tested under a specific set of conditions that provides complete kill of the tested microorganisms.
Synergy tests were conducted using standard microtiter plate assays with phosphate buffer containing 3.5% dipropylene glycol (DPG). In this method, a wide range of combinations of chemicals was tested by conducting high resolution MBC assays of Component (A) in the presence of various concentrations of Component (B). High resolution MBCs were determined by adding varying amounts of microbicide to one column of a microtiter plate and doing subsequent […] dilutions using an automated liquid handling system to obtain a series of closely spaced endpoints. The MBC plate was inoculated one column at a time with the test microorganism. An aliquot of the inoculated well was transferred at 15 seconds to a plate containing a neutralizing agent (D/E Neutralizing Broth), mixed and held for 5 minutes before being transferred to a growth plate containing trypticase soy broth (TSB). The TSB plate was incubated at 37° C. and read for the presence/absence of growth at 24 hours. The lowest level tested that provided complete kill (as evidenced by no growth in the microtitre plate) of the test organisms in 15 seconds is the minimum biocidal concentration (MBC).
The synergy of the combinations of the present invention was determined against a bacterium, Escherichia coli (E. coli—ATCC #10536), at a concentration of approximately 1×10^8 bacteria, per mL. This microorganism is representative of natural contaminants in many consumer and industrial applications.

[5] = single active alone at 0.125% w/v, water
[6] = single active alone at 0.05% w/v, model surfactant solution
[7] = single active alone at 0.1% w/v, model surfactant solution
[8] = single active alone at […] w/v, model surfactant solution

CCCc1ccccc1O [2-n-propylphenol]
MBC (minimum biocidal concentration) [1]: 0.25 % w/v | MBC of phenol ([1]; phenol alone, complete bacterial kill against S. aureus, water): 0.25 % (w/v) | NMBS ([1]; single active alone at 0.1% w/v, water): 7.30 log CFU/ml | NMBS [1, 5]: 7.19 log CFU/ml | NMBS ([1]; single active alone at […] w/v, water): 0 log CFU/ml | No. of replicates showing growth (out of 4) [2, 6]: 4 | Δ OD 450 nm = OD450 (time = 16 hours) − OD450 (time zero), Mean [2, 6]: −1.43 | Δ OD 590 nm OD590 (time = 16 hours) − OD590 (time zero), Mean [2, 6]: 0.46 | No. of replicates showing growth (out of 4) [2, 7]: 4 | Δ OD 450 nm = OD450 (time = 16 hours) − OD450 (time zero), Mean [2, 7]: −1.42 | Δ OD 590 nm OD590 (time = 16 hours) − OD590 (time zero), Mean [2, 7]: 0.46 | No. of replicates showing growth (out of 4) [2, 8]: 4 | Δ OD 450 nm = OD450 (time = 16 hours) − OD450 (time zero), Mean [2, 8]: −1.15 | Δ OD 590 nm OD590 (time = 16 hours) − OD590 (time zero), Mean [2, 8]: 0.66 | NMBS ([3]; 0.05% w/v): 7.71 log CFU/ml | NMBS ([3]; 0.125% w/v): 0 log CFU/ml | MBC (minimum biocidal concentration) ([3]; in water, component alone): 0.125 % w/v | NMBS ([3]; […] w/v): 0 log CFU/ml

CCC(C)c1ccc(O)cc1 (centres unmarked) [4-sec butyl phenol]
Log reduction S. aureus ATCC 6538 (S. aureus; phenolic compound alone at 0.05%): 0.0

C=C(C)[C@@H]1CC=C(CO)CC1 [(4S)-(4-(prop-1-en-2-yl)cyclohex-1-enyl)methanol]
SI (Synergy Index = Qa/QA + Qb/QB) [4]: 1.00 | MBC (minimum biocidal concentration) [1]: >1.0 % w/v | NMBS [1, 5]: 7.19 log CFU/ml | NMBS ([1]; single active alone at 0.4% w/v, water): 7.14 log CFU/ml | NMBS ([1]; single active alone at 0.625% w/v, water): 7.15 log CFU/ml | NMBS ([1]; single active alone at 1.0% w/v, water): 7.39 log CFU/ml | MBC of terpene alcohol ([1]; terpene alcohol alone, complete bacterial kill against S. aureus, water): 1.0 % (w/v) | MBC ([2]; Escherichia coli, ATCC10536, 15 s, in 2.85% sodium cocoyl glycinate + 1.85% sodium lauroamphoacetate solution at pH 10, E. coli, read-out: MBC (minimum biocidal concentration)): 4000 µg/mL | MBC of terpene alcohol ([2]; terpene alcohol alone, complete bacterial kill against E. coli, model surfactant solution): 0.4 % (w/v)

C=C(C)[C@@H]1CC=C(CO)CC1 [perillyl alcohol]
Log reduction S. aureus ATCC 6538 (S. aureus; terpinyl alcohol alone at […]): −0.6
